Where a SMILES comes first, the peptide text is derived from it.
Key:
αSOs = target: T1, αSOs (Homo sapiens, UniProt P37840); assay: Calcein release assay, αSOs together with peptides; assay type: biochemical
T1 construct: made in house; host or cells: Escherichia coli BL21 (DE3); oligomers formed by shaking the monomer and isolated by SEC (Superose 6)
Method: αSOs show cytotoxic properties, which have been attributed to their membrane-disrupting ability ([69]). To examine the effect of peptides on membrane permeabilization by αSOs, we used a simple calcein release assay. αSOs, peptides, and aSO–peptide mixtures at 10^−6 to 10^−1 mg/ml peptide were added to calcein-loaded DOPG vesicle, and the extent of calcein release was monitored for 30 min by the increase in fluorescence as calcein leaks out upon membrane permeabilization, leading to dilution and the loss of self-quenching. The time-dependent calcein release data from DOPG vesicles ([70], [71]) in the presence of peptides, αSOs, and αSO–peptides are shown in Figs. S9 and S10. In order to allow easy comparison of all peptides, the calcein release versus concentration (peptides and αSOs) were plotted at the plateau point of release (Fig. 5, A–C). […] Figure 5D compares calcein release percentages of data represented in Figure 5, A and B at peptide concentrations between 0.001 and 0.1 mg/ml, where we see the largest extent of calcein release in general.
Calcein-filled vesicles of DOPG were prepared as described before ([38]). Briefly, DOPG was dissolved in PBS to […], in the presence of calcein at self-quenching concentrations (70 mM) and subjected to 10 freeze–thaw cycles between liquid nitrogen and a 50 °C water bath. After 21 times extrusion through a 100 nm filter, free calcein was separated from vesicles with a PD-10 desalting column (GE Healthcare). Vesicles were stored at 4 °C and used for calcein release assays within 24 h.
Calcein release was measured by mixing peptides and/or αSOs at a final concentration of 10^−6 to 10^−1 mg/ml and 5.2 μg/ml, respectively, in 148 μl with 2 μl of calcein vesicles, and were then loaded onto a 96-well plate (Nunc, Thermo Fischer Scientific) in triplicate. The plate was sealed with Crystal clear sealing tape (Hampton Research), and fluorescence was measured (excitation: 485 nm and emission: 520 nm) for 1 h at 37 °C every 2 min with a 2 s autoshake before each reading on a fluorescence plate reader (Tecan). Finally, 2 μl Triton X-100 (0.2% [v/v]) was added to lyse vesicles, and the maximal fluorescence signal was measured for 20 min under the same reading condition. Background fluorescence was subtracted, and the average signal of calcein release before addition of Triton X-100 (F), after treatment with Triton X-100 (Ft) and for the buffer control (F0) were determined, and calcein release percentage was calculated as follow (Equation 1):(1) CalceinRelease%(CR%)=(F−F0)/(Ft−F0)

SH-SY5Y cells [1] = assay: MTT cell viability assay, substance alone
Method: (§1) The effect of the peptides on αSOs toxicity in SH-SY5Y cells using 3-(4, 5-dimethylthiazol-2-yl)-2,5-diphenyltetrazolium bromide (MTT) cell viability assay was also tested to complement our calcein data.
(§2) We used the MTT assay to measure cell viability after 24 h treatment with αSOs in the presence of peptides. SH-SY5Y cells were seeded in 96-well plates at a density of 5 × 10^4 cell/ml in Dulbecco's modified Eagle's medium supplemented with 10% FBS, 100 unit/ml penicillin, and […]. The cells were incubated in a humidified atmosphere incubator with 5% CO2 and 95% humidity at 37 °C for 24 h. The culture medium was then replaced with fresh medium containing 10 μM αSOs with peptides and incubated for another 24 h. Then the cell medium was replaced with a fresh medium containing 20% MTT (5 mg/ml), and the cells were incubated for an additional 4 h at 37 °C. Then 100 μl of dimethyl sulfoxide was added to dissolve formazan crystals by incubating for 30 min on a shaker at RT. Consequently, absorbance was measured by using a plate reader at 570 nm.

SH-SY5Y cells [2] = conditions: 10 μM αSOs (0.14 μg/ml) with 35 μg/ml peptide, 24 h, MTT
Method: as §1, §2

αSO = target: T2, αSO (Homo sapiens, UniProt P37840); assay: Microfluidic diffusional sizing binding affinity (Fluidity One-W), αSO; conditions: 60 μM labeled p216, 0–84 μM αSO, MilliQ water, 15 min in the dark; 1:1 binding fit of Rh; read-out: Dissociation binding constant (Kd) for αSO
T2 construct: made in house; host or cells: Escherichia coli BL21 (DE3); oligomers formed by shaking the monomer and isolated by SEC (Superose 6)
Method: (§3) To determine an actual binding affinity of p216 to αSOs and α-syn, the hydrodynamic radius (Rh) of labeled p216 bound to unlabeled αSOs–α-syn was determined by microfluidic diffusional sizing ([72]). […] Rather, a direct and easily interpretable parameter is provided in the form of the Rh. […] For both species, binding of peptide led to a significant increase in Rh, confirming peptide immobilization in complex with these states. The measured values of ca. 5 and 11 nm for α-syn and αSO, respectively, agree nicely with the known Rh of α-syn ([73]) (4 nm) and αSO (10 nm) ([74]).
(§4) Peptides were labeled with fluidiphore rapid amine 503 (Fluidic Analytics Limited), an amine-reactive fluorescent label whose absorbance shifts from 612 nm (free) to 503 nm when conjugated. About 1 mg dry fluidiphore dye was dissolved in 100 μl acetonitrile and stored at −20 °C. The peptide stock solutions were diluted into labeling buffer (0.1 M NaHCO3, pH 8.3) to a final concentration of 1 mg/ml (100 μl) and mixed with 3 μl of dye solution (final dye concentration of […]) and incubated for 30 min at RT. […]
(§5) Fluidity One-W (Fluidic Analytics Limited) ([101]) was used to measure the binding affinity and Rh of peptides bound to α-syn monomers and oligomers. We determined the lowest concentration of labeled peptides that could be detected by the instrument to be 60 μM. […]

α-syn [3] = target: T3, α-syn (Homo sapiens, UniProt P37840); assay: Microfluidic diffusional sizing binding affinity (Fluidity One-W), α-syn monomer; conditions: 60 μM labeled p216, 0–400 μM α-syn monomer, MilliQ water, 15 min in the dark; 1:1 binding fit of Rh; read-out: Dissociation binding constant (Kd) for α-syn
T3 construct: made in house; host or cells: Escherichia coli BL21 (DE3), plasmid pET11-D
Method: as §3, §4, §5

α-syn [4] = conditions: cited from earlier work
Excerpt: Cell-penetrating peptides (CPPs) ([57]) are defined as a short relatively nontoxic and partly hydrophobic and/or polybasic peptides ([…] 5–35 amino acid residues), with a net positive charge at physiological pH. CPPs have the ability of interacting with negatively charged groups on the cellular membrane, which results in their internalization ([58], [59]) but can also cotransport a variety of cargoes inside the cells ([58], [60], [61], [62]). Cationic CPPs are able to translocate across membranes in a nonendocytotic fashion, generally by one of following mechanisms: the inverted micelle mo ...

[5] = vesicles formed by DOPG and other negatively charged lipids; cited from earlier work
Method: Penetratin forms β-structures on vesicles formed by DOPG and other negatively charged lipids (at concentrations >10^−3 mg/ml), leading to membrane perturbation ...

| Molecule | Reduction of αSO-induced membrane permeability (αSOs; calcein-filled DOPG LUVs, peptide concentration not stated at the place) [%] | Reduction of αSOs-induced large anionic unilamellar vesicle membrane permeability (αSOs; peptide at 10^−1 to 10^−3 mg/ml) [%] | Cell viability (MTT) (SH-SY5Y cells [1]; SH-SY5Y cells, 35 μg/ml peptide alone, 24 h) [%] | Toxicity to SH-SY5Y cells, in words (SH-SY5Y cells [1]; peptide alone, MTT) | Increase of cell viability compared with αSOs alone (SH-SY5Y cells [2]) | Kd (αSO) [µM] | Kd (α-syn [3]) [µM] | Effect on fibrillation of α-syn (α-syn [4]) | Concentration at which β-structures form on vesicles, leading to membrane perturbation and permeabilization [5] |
| --- | --- | --- | --- | --- | --- | --- | --- | --- | --- |
| CSCC[C@H](NC(=O)[C@H](CCCNC(=N)N)NC(=O)[C@H](CCCNC(=N)N)NC(=O)[C@H](CC(N)=O)NC(=O)[C@H](CCC(N)=O)NC(=O)[C@H](Cc1ccccc1)NC(=O)[C@@H](N)Cc1c[nH]c2ccccc12)C(=O)N[C@@H](CCCCN)C(=O)N[C@@H](Cc1c[nH]c2ccccc12)C(=O)N[C@@H](CCCCN)C(=O)N[C@@H](CCCCN)C(=O)O [p216] (H-WFQNRRMKWKK-OH) | 100 | ~100 | 92 | not toxic | about 20% | 2.7 | 31.2 |  |  |
| RQIKIWFQNRRMKWKK [Penetratin, cell-penetrating peptide from the third helix of the Antennapedia protein homeodomain] |  |  |  |  |  |  |  | inhibit fibrillation of α-syn | > 10^−3 mg/ml |
